Measurements published in patent publication US20140256663A1, “Amphotericin Analogous Compounds and Pharmaceutical Compositions Containing Them” (CENTRO DE INVESTIGACION Y DE ESTUDIOS AVANZADOS DEL …, priority 2010, published 2014).

How the values were obtained:
[1] = Recarrier K. thesis; cited from earlier work
[2] = system: Candida albicans ATCC 752; experiment: Antifungal activity in vitro by flow cytometry, Candida albicans ATCC 752; type: cell-based; conditions: ATCC752, 24 h at 37° C., read-out: CF50 Candida albicans ATCC 752
Procedure: (§1) The antifungal activity of the polyene macrolide derivate of the present invention was determined by flow cytometry method earlier described (Pinto et al., J. Medical Microbiology, 2009; 58, 1454-1462; Pina-Vaz and Rodriguez, Methods Mol. Biol. 2010; 638:281-289). For the test two strains of Candida albicans (ATCC 10231 and 752) and Candida kruzei were used. A cellular suspension of 1×10^6 UFC/mL was used, which has sown in 96-well plates. […] As controls were used: untreated yeasts (control of living cells), yeasts exposed to UV radiation (arrest, inhibition of proliferation), and yeasts exposed at temperature of 100° C. (dead yeasts). Cells were collected by centrifugation at 10,000×g for 10 min, they were washed once in phosphate buffer. […] of propidium iodide 0.1 mg/mL were added to the cell suspension. It was incubated during 30 minutes at room temperature and protected from light. Finally, the samples were analyzed by flow cytometry (Becton-Dickinson Facsc Calibur, laser argon 480 nm). The intrinsic parameters and fluorescence in the FL2 channel (yellow/orange fluorescence) for FUN and channel FL3 (red fluorescence, filter 630 nm) for propidium iodide were acquired and registered on a logarithmic scale for a minimum of 7500 events per sample. For data analysis, the quadrants were adjusted in a plot of data lines of fluorescence intensity of samples. […] These quadrants were used to quantify the percentile of cells showing altered fluorescence compared to drug-free controls.

[3] = system: Candida kruzei; experiment: Antifungal activity in vitro by flow cytometry, Candida kruzei; type: cell-based; conditions: 24 h at 37° C., read-out: CF50 Candida kruzei
Procedure: as §1

[4] = Unit channel studies in chicken egg lecithin bilayers with cholesterol
Procedure: The activity is determined by the presence of the different channels formed by polyenes in the lipid bilayer (Cotero, et al., supra; Venegas, et al., supra). […] These values were determined by the technique of unit channel delineated above.
Unit channel studies were performed according to procedures described earlier (Cotero, et al., supra, Venegas, et al., supra). Required liposomal suspensions were prepared using lecithin with cholesterol or ergosterol. These suspensions were placed in an ultrasonic bath for 15 minutes to produce unilamellar vesicles. Subsequently, the suspension was placed in a 100 μl eppendorf and a lipid bilayer was formed on the tip of a micro-electrode. The unit channels of amphotericin and of the invented compounds were incorporated to this bilayer. The unit channel current of the various compounds was recorded with an electrometer, and then these records were analyzed by determining the activity of the compounds and the characteristics of the channels formed.
The activity is determined by the presence of the various channels formed by polyenes in the lipid bilayer (Cotero, et al., supra, Venegas, et al., supra). […] This conductance is the effect of all the channels present and was determined by the unit channel technique earlier described.

[5] = system: human erythrocytes; experiment: Hemolytic assay on human erythrocytes; type: cell-based; conditions: 1 hour
Procedure: The hemotoxicity of the polyene macrolide derivative of the present invention was determined by measuring the toxicity to human erythrocytes (values HE50) using a method established by Cybulska, et al. (Cybulska, B., Borowski, E. and Gary-Bobo, M. Relationship between ionophoric and hemolytic activities of perimycin A and vacidin A, two polyene macrolide antifungal antibiotics. Biochem Pharmacol. 1989; 38(11): 1755-1762). For determining the haematoxicity 2 mL blood were obtained and placed in a tube with EDTA. The number of erythrocytes was counted in a Neubauer chamber, and 1×10^7 cells/mL were placed in test tubes. The erythrocytes were resuspended in 450 μL of KCl 150 mM+Tris 3 mM buffer. The erythrocytes were treated with concentrations of 0.01, 0.1, 1, 10 y 100 μM and incubated in a water bath for 1 hour. They were then centrifuged at 1500 rpm for 15 seconds; 150 μL were taken from the supernatant and placed in 96-well plates; the optical density of each group was measured using a plate reader at a wavelength of 550 nm. We included one tube with the drug solvent (DMSO 1%) as internal control. We also included one tube only with erythrocytes and 500 μl of buffer KCl 150 mM+Tris 3 mM, which we consider as a negative control group and a tube with 500 μl of red cells and 35 mM NaCl (positive control).

[6] = system: human renal cells 293Q (ATCC CLR-1573); experiment: MTT cytotoxicity on human renal cells 293Q
Procedure: For cytotoxicity studies human kidney cells (ATCC No. CRL-1573) were used. The cells were cultured with Minimum Essential Medium (MEM) (GIBCO BRL), supplemented with 10% fetal bovine serum (FBS) (GIBCO BRL), 2 mM 1-glutamine (GIBCO BRL), 1.5 gL Na2HCO3 (Sigma Chemical Co), 0.1 mM nonessential amino acids (Sigma Chemical Co), and 1 mM sodium pyruvate (In vitro, S.A.). The technique of bromide of 3(4,5-dimethylthiazol-2-yl)-2,5-diphenyl tetrazolium (MTT) (Sigma Chemical Co) was applied; a technique which is based on the conversion of dye to an insoluble precipitate called formazan. This test is used as an indicator of mitochondrial function in living cells that measures the metabolic capacity in cells and serves as an indicator of cytotoxicity. […] (Mosman […], Immunol Methods, 65: 55-63). The cytoxicity test consisted of planting 10,000 cells per well in 96-well plates (Corning Incorporated Costar) in MEM and incubate them (Nuaire us autoflow CO2 water-jacketed incubator) during 24 h at 37° C. and 5% CO2. […] After incubation, cells were treated and incubated anew for 24 h. After this time the medium was aspirated carefully and replaced with 200 μL of fresh medium, and 50 μL of MTT was added for a total volume of 250 μl. They were then incubated for 4 hours in the above conditions. After that time the medium with MTT was carefully removed and 200 μL of DMSO and 25 μL of Sorensen buffer (0.1 M glycine+0.1 M NaCl at pH 10.5) were added to each well. The plate was then mixed until the formazan crystals dissolved, and it was finally read in a plate reader (Microplate Limaning System Ultramark, Biorad) at a wavelength of 550 nm.
For the tests, we used human renal ephythelial cells (293Q) (ATCC Catalog No. CRL-1573). The cells were cultured with Minimum Essential Medium (MEM) (GIBCO BRL) supplemented with 10% fetal bovine serum (FBS) (GIBCO BRL), 2 mM L-glutamine (GIBCO BRL), 1.5 g/L Na2HCO3 (Sigma Chemical Co), 0.1 mM nonessential amino acids (Sigma Chemical Co), and 1 mM sodium pyruvate (In vitro, S.A.). For cytoxicity tests, we applied the technique of bromide 3(4,5-dimethylthiazol-2-yl)-2,5-diphenyl tetrazolium (MTT) (Sigma Chemical Co), which is based on the conversion of the dye to an insoluble precipitate called formazan. This test is used as an indicator of mitochondrial function in living cells which measures the metabolic capacity in cells and serves as an indicator of cytotoxicity. (Wang, H. Z., Chang, C. H., Lin, C. P., Tsai, M. C). Using MTT viability assay to test the cytotoxicity of antibiotics and steroid to cultured porcine corneal endothelial cells. J. Ocul. Pharmacol. Ther. 1996; 12: 35-43). For the essay 10,000 cells were seeded per well in 96-well plates (Corning Incorporated Costar) in the medium already indicated and incubated for 24 h at 37° C. and 5% CO2. […] After incubation, cells were treated and incubated again for 24 h. The medium was carefully aspirated and replaced with 200 μl fresh medium, adding 50 μl MTT solution for a total volume of 250 μl. They were then incubated for 4 hours in the above conditions. The medium was carefully removed with MTT and 200 μl DMSO and 25 μl Sorense buffer (0.1 M glycine+0.1 M NaCl at pH 10.5) was added to each well. Then the plate was mixed until the formazan crystals dissolved; it was finally read in a reader plate (Microplate Limaning System Ultramark, Biorad) at a wavelength of 550 nm.

[7] = system: Saccharomyces cerevisae FY833(SC) cells; experiment: Viability of Saccharomyces cerevisae FY833 (SC) cells at various concentrations; type: cell-based; conditions: FIG. 1, various concentrations
Procedure: All derivatives were tested for antibiotic activity in yeast cultures of S. cerevisiae.

[8] = system: Candida albicans ATCC 10231; experiment: Antifungal activity in vitro by flow cytometry, Candida albicans ATCC 10231; type: cell-based; conditions: ATCC10231, 24 h at 37° C., read-out: CF50 Candida albicans ATCC 10231
Procedure: as §1

[9] = 200 μM compound, 30 mol % cholesterol, 27° C.

SMILES | selectivity ergosterol versus cholesterol POPC membranes [1] | IC50 [2] [µM] | IC50 [3] [µM] | Opening probability, channel type I [4, 9] [%] | Opening probability, channel type II [4, 9] | Opening probability, channel type III [4, 9] | Opening probability, channel type IV [4, 9] | Opening probability, channel type V [4, 9] | Opening probability, channel type VI [4, 9] | activity of transmembranal channels in the cholesterol membrane ([4]; in words, compared to AmB) | HE50 (Hemolysis 50) [5] [µM] | collateral cytotoxicity on human renal cells 293Q compared to AmB ([6]; FIG. 2, FIG. 8) | DT50 CitE50 ([6]; human renal cells 293Q, 24 h) [µM] | inhibitory capacity / potency on SC cells compared to AmB [7] | IC50 [8] [µM]
C[C@@H]1[C@H](O)[C@@H](C)/C=C/C=C/CC/C=C/C=C/C=C/C=C/C(O[C@H]2O[C@H](C)[C@@H](O)[C@H](N)[C@@H]2O)CC2O[C@](O)(CC(O)C(O)CCC(O)CC(O)CC(O)CC(=O)O[C@H]1C)CC(O)C2C(=O)O (stereo partly drawn) [nystatin] | much higher selectivity | – | – | – | – | – | – | – | – | – | – | – | – | – | –
CC1OC(O[C@H]2/C=C/C=C/C=C/C=C/C=C/C=C/C=C/C(C)[C@@H](O)C(C)C(C)OC(=O)C[C@H](O)C[C@H](O)CC[C@@H](O)[C@H](O)C[C@H](O)C[C@]3(O)CC(O)[C@@H](C(=O)N(C(C)C)C(C)C)C(C2)O3)C(O)C(N)C1O (stereo partly drawn) [A-3, N-diisopropylamide of AmB] | – | > 100 | > 100 | <1 | N.O. | N.O. | N.O. | N.O. | N.O. | more reduced presence of channels in membranes with cholesterol | 53 | low cytoxicity | 180 | low potency in fungal cells | > 50
